For series [1], the target named is T1, TTR in human blood plasma (Homo sapiens, UniProt P02766).
T1 construct: from tissue; host or cells: human blood plasma
In words: plasma TTR binding selectivity, antibody capture method. As to conditions: inhibitor 10.8 μM, 24 h, 37° C. The protocol: Inhibitor binding selectivity to TTR in human blood plasma was assessed using a previously established antibody capture method (Purkey, H. E.; et al. Proc. Natl. Acad. Sci. USA 2001, 98, 5566-5571). In this evaluation, inhibitors (10.8 μM, ˜2-3× the natural concentration of TTR) are incubated in human blood plasma for 24 h at 37° C. Quenched sepharose resin is then added to the plasma to remove any small molecules that would bind to the resin as opposed to TTR. TTR and any TTR-bound small molecule is then immunocaptured using a polyclonal TTR antibody covalently attached to sepharose resin. After washing the resin (5×10 min washes), the antibody-TTR complex is dissociated at high pH and analyzed by RP-HPLC. The relative stoichiometry between TTR and inhibitor is then calculated from their HPLC peak areas using standard curves.
The procedures used for bacterial expression of TTR (Lai, Z.; et al. Biochemistry 1996, 35, 6470-6482), the stagnant fibril formation assay (Colon, W.; Kelly, J. W. Biochemistry 1992, 31, 8654-8660; Lai, Z.; et al. Biochemistry 1996, 35, 6470-6482), the blood plasma binding selectivity assay (Purkey, H. E.; et al. Proc. Natl. Acad. Sci. USA 2001, 98, 5566-5571), and analytical ultracentrifugation (Lashuel, H. A.; et al. Biochemistry 1998, 37, 17851-17864) have all been described in detail previously.

The target of series [2] is T2, WT-TTR (Homo sapiens, UniProt P02766).
T2 construct: made in house
As to conditions: inhibitor 7.2 μM, WT-TTR 3.6 μM, pH 4.4, 72 h; cited from earlier work.

Series [3] concerns the target T2, WT-TTR. In words: time course analysis of WT-TTR fibril formation inhibition. Type of series: biochemical. Conditions: for rate of TTR amyloidogenesis mediated by partial acidification relative to control: inhibitor 7.2 and 3.6 μM, WT-TTR 3.6 μM, pH 4.4, turbidity at 500 nm. The protocol:
Time course analysis of WT-TTR fibril formation inhibition by compounds 25, 47, and 64. Compounds 25, 47, and 64 were dissolved in DMSO to provide 7.2 mM primary stock solutions (10× stocks), from which 5- and 10-fold DMSO dilutions yielded 1.44 mM (2×) and 0.72 mM (1×) secondary stock solutions, respectively. 495 μL of 0.4 mg/mL (7.2 μM) WT-TTR solution (10 mM sodium phosphate, 100 mM KCl, and 1 mM EDTA, pH 7.2), and 5 μL of either the 1.44 or 0.72 mM inhibitor secondary stock solutions were added to disposable UV cuvettes, vortexed briefly, then incubated for 30 min at 25° C. The pH was then adjusted to 4.4 with addition of 500 μL of acidic buffer (100 mM acetate, 100 mM KCl, 1 mM EDTA, pH 4.2), and the final 1 mL solutions were vortexed again and incubated in the dark at 37° C. without agitation. At 0, 4, 8, 12, 25, 49, 74, 100, 122, 145, and 169 h time points after acidification, the solutions were vortexed and the turbidity at 500 nm was measured. Control samples containing 5 μL of pure DMSO were prepared and analyzed as above for comparison. Small molecule and TTR control samples were prepared in groups of 10 to prevent disturbance of the cuvettes during incubation. Samples were discarded after their turbidities were measured.
FIG. 10 is a plot of the timecourse analysis of WT-TTR (3.6 μM) fibril formation mediated by partial acid denaturation in the absence (▴) and presence of 7.2 μM (⋄) and 3.6 μM (◯) inhibitors 25, 47, and 64, as measured by turbidity at 500 nm (see color scheme within Figure to differentiate inhibitors). It is hard to discern which compound is most efficacious in the black and white plot.

A further series concerns the target T3, WT-TTR tetramer (Homo sapiens, UniProt P02766).
T3 construct: made in house
In words: time course analysis of WT-TTR tetramer dissociation by linked monomer unfolding in urea. It counts as biochemical. Conditions: for rate of TTR tetramer dissociation in 6M urea: inhibitor 7.2 and 3.6 μM, TTR 3.6 μM, far-UV CD. The text has this: The ability of these inhibitors to impose kinetic stability on tetrameric TTR is best evaluated by assessing the rate of TTR tetramer dissociation (Hammarstrom, P.; et al. Science 2003, 299, 713-716; Hammarstrom, P.; et al. Proc. Natl. Acad. Sci. USA 2002, 99, 16427-16432). Under acidic conditions tetramer dissociation leads to amyloidogenesis, whereas in the presence of chaotropes (6M urea), tetramer dissociation leads to monomer unfolding. The influence of inhibitors 25, 47 and 64, representing the three structural classes of dibenzofuran-based inhibitors, on the rates of tetramer dissociation under acid- and urea-mediated denaturing conditions was probed. […] The rate of TTR tetramer dissociation in 6M urea is easily monitored by linking the slow quaternary structural changes to rapid tertiary structural changes that are easily monitored by spectroscopic methods (Hammarstrom, P.; et al. Proc. Natl. Acad. Sci. USA 2002, 99, 16427-16432).
Time course analysis of WT-TTR tetramer dissociation inhibition by compounds 25, 47, and 64 evaluated by linked-monomer unfolding in urea. Compounds 25, 47, and 64 were dissolved in DMSO to provide 10 mM primary stock solutions, from which 10-fold EtOH dilutions yielded 1 mM secondary stock solutions. 200 μL of 1.0 mg/mL (18 μM) WT-TTR solution (50 mM sodium phosphate, 100 mM KCl, and 1 mM EDTA, pH 7.2), and either 7.2 or 3.6 μL (2× and 1×, respectively) of 1 mM inhibitor secondary stock solutions were added to 2 mL eppendorf tubes, vortexed briefly, and incubated for 15 min at 25° C. 100 μL of the TTR•inhibitor solutions were added to 900 μL of urea buffer (6.67 M urea, 50 mM sodium phosphate, 100 mM KCl, 1 mM EDTA, pH 7.2), and the final 1 mL solutions were vortexed again and incubated in the dark at 25° C. without agitation. At 0, 4, 11, 24, 49, 73, 97, 122, 146, and 170 h time points after mixing with urea, the circular dichroism spectra were measured between […], with scanning every 0.5 nm and averaging for 5 s. […] Control samples containing 7.2 μL of 10% DMSO in EtOH were prepared and analyzed as above for comparison. […] TTR tetramer dissociation is linked to the rapid (˜500,000× faster) monomer denaturation as measured through this β-sheet loss (Hammarstrom, P.; et al. Proc. Natl. Acad. Sci. USA 2002, 99, 16427-16432).
FIG. 11 is a plot of the timecourse analysis of WT-TTR (3.6 μM) tetramer dissociation (6.0 M urea) in the absence (▴) and presence of 7.2 μM (⋄) and 3.6 μM (◯) concentrations of inhibitors 25, 47, and 64 (see color scheme within Figure to differentiate inhibitors). Slow tetramer dissociation is not detectable by far-UV CD spectroscopy, but this process is linked to rapid (˜500,000× faster) monomer denaturation as monitored by loss of β-sheet content easily followed by circular dichroism spectroscopy. […]

A short description of series [4]: precipitation of small molecules under acid-mediated amyloidogenic conditions in the absence of TTR. It counts as physicochemical. As to conditions: 3.6 μM, pH 4.4, 37° C., 72 h. The protocol: TTR amyloid inhibition efficacy was probed using a stagnant fibril formation assay described previously, wherein partial denaturation was triggered by acidification (pH 4.4, 37° C.) (Colon, W.; Kelly, J. W. Biochemistry 1992, 31, 8654-8660). Briefly, a test compound (7.2 or 3.6 μM) is incubated with TTR (3.6 μM) for 30 min in pH 7 buffer. Amyloidogenesis is then initiated by lowering to pH 4.4, where maximal fibril formation is observed with WT-TTR after 72 h (37° C.). […] From experience we know that excellent inhibitors allow <10% fibril formation at a small molecule concentration of 7.2 μM and <40% fibril formation at a concentration equal to that of WT-TTR (3.6 μM) (Hammarstrom, P.; et al. Science 2003, 299, 713-716; Klabunde, T.; et al. Nature Struct. Biol. 2000, 7, 312-321; Razavi, H.; et al. Angew Chem 2003, 42, 2758-2761; Miroy, G. J.; et al. Proc. Natl. Acad. Sci. USA 1996, 93, 15051-15056; Peterson, S. A.; et al. Proc. Natl. Acad. Sci. USA 1998, 95, 12956-12960; Baures, P. W.; et al. Bioorg. Med. Chem. 1998, 6, 1389-1401; Baures, P. W.; et al. Bioorg. Med. Chem. 1999, 7, 1339-1347; Petrassi, H. M.; et al. J. Am. Chem. Soc. 2000, 122, 2178-2192; McCammon, M. G.; et al. Structure 2002, 10, 851-863; Oza, V. B.; et al. J. Med. Chem. 2002, 45, 321-332; Saccheftini, J. C.; et al. Nature Rev. Drug Disc. 2002, 1, 267-275; Green, N. S.; et al. J. Am. Chem. Soc. 2003, 125, 13404-13414; Adamski-Werner, S. L.; et al. J. Med. Chem. 2004, 47, 355-374; Miller Sean, R.; et al. Lab. Inv. 2004, 84, 545-552). […] Therefore, when both the ligand and TTR are at equal concentrations, a population of TTR•I, TTR•I2 and unliganded TTR is observed, dictated by the dissociation constants. It is now established by other studies that inhibitor occupancy of only one of the two TTR binding sites is sufficient to stabilize the entire tetramer against amyloidogenesis (Wiseman, R. L.; et al. J. Am. Chem. Soc. 2005, in press). This is further supported by the observation herein that twenty-six of these dibenzofurans are excellent TTR amyloidogenesis inhibitors (<40% fibril formation) at a concentration equal to that of TTR (3.6 μM each, FIG. 3).

The target of another series is T4, TTR (Homo sapiens, UniProt P02766).
T4 construct: made in house
In words: analytical ultracentrifugation of TTR quaternary structure under amyloidogenic conditions. Conditions: 27 at 7.2 μM, TTR 3.6 μM, 72 h at pH 4.4, 37° C.; tetramer expected 55.0 kDa. The protocol: To ensure that these C1-arylated dibenzofurans inhibit TTR fibril formation by native state stabilization (i.e. tetramer stabilization), we studied the TTR quaternary structure by analytical ultracentrifugation after a preincubation period of 72 h under amyloidogenic conditions (pH 4.4, 37° C.). […] In the absence of 27, TTR aggregated into very high molecular weight oligomers that sedimented rapidly in the ultracentrifugation experiment (data not shown). […]
FIG. 8 is a plot of the absorbance at 280 nm versus distance from the center in the sedimentation velocity study on TTR ([…]) after being preincubated with 27 ([…]) and after another incubation period where the pH was dropped to 4.4 for 72 h, a time frame that results in maximal amyloid formation in the absence of inhibitor. […]
FIG. 9 is a plot of the absorbance at 280 nm versus distance from the center in the equilibrium ultracentrifugation studies on TTR ([…]) after being preincubated with 27 ([…]) and after another incubation period where the pH was dropped to 4.4 for 72 h, a time frame that results in maximal amyloid formation in the absence of inhibitor. […]

The values below come from US20050261365A1, “Transthyretin stabilization” (The Scripps Research Institute, priority 2004, published 2005).

Molecules are shown by their SMILES. “And” between values parts separate entries of the source, which are not always exact repeats. Equal entries are not always repeated.

Regarding `O=C(O)c1cccc2c1oc1c(C(=O)O)cccc12` [Compound 1, dibenzofuran-4,6-dicarboxylic acid, reference compound], the “binding selectivity to TTR in human blood plasma” value in series [1] is reported as “no measurable binding selectivity”. The “decrease of the extent of WT-TTR amyloid formation” value on WT-TTR [2] is given as 90%.

`O=C(O)c1cccc2c1oc1c(C(=O)O)ccc(Nc3ccccc3C(F)(F)F)c12` [Compound 25]: the “rate of TTR amyloidogenesis mediated by partial acidification relative to control” value on WT-TTR [3] was “dramatically slowed in a dose-dependent fashion”. At WT-TTR tetramer (after 169 hours, 6.0 M urea, FIG. 11), the “order of effect on tetramer dissociation at the end of the time course” value is given as “most effective in dissociating tetramers”. In addition, the “rate of TTR tetramer dissociation in 6M urea” value at WT-TTR tetramer is “markedly slowed in a dose-dependent fashion”. The “precipitation in the absence of TTR” value in series [4] was “no measurable precipitation”.

For `O=C(O)c1cccc2c1oc1c(C(=O)O)ccc(Nc3cccc(Cl)c3)c12` [Compound 27], at TTR, the “hydrodynamic molecular weight of TTR by equilibrium analytical ultracentrifugation” value is 55.1±0.4 kDa and 55.0±0.2 kDa; the “hydrodynamic molecular weight of TTR by sedimentation velocity” value was 57.1±0.3 kDa and 57.1±0.2 kDa. Moreover, in series [4], the “precipitation in the absence of TTR” value is on record as “no measurable precipitation”.

As for `O=C(O)c1cccc2c1oc1c(C(=O)O)ccc(Oc3cc(Cl)cc(Cl)c3)c12` [Compound 47], at WT-TTR [3] (after 169 hours, FIG. 10), the “order of fibrils formed at the end of the time course” value is reported as “shows the most fibrils formed”. The “rate of TTR amyloidogenesis mediated by partial acidification relative to control” value on WT-TTR [3] is “dramatically slowed in a dose-dependent fashion”. Moreover, the “rate of TTR tetramer dissociation in 6M urea” value at WT-TTR tetramer was “markedly slowed in a dose-dependent fashion”. Also, in series [4], the “precipitation in the absence of TTR” value is reported as “no measurable precipitation”.
